These results are taken from ChEMBL document CHEMBL4706686, “Design, synthesis and biological evaluation of dihydrofurocoumarin derivatives as potent neuraminidase inhibitors” (Bioorg Med Chem Lett, 2021).

SMILES strings stand for the structures.

A short description of the test: Inhibition of Influenza virus H5N1 neuraminidase. Set-up: species or system H5N1 subtype.

Regarding `Cc1cc(=O)oc2c3c(ccc12)O/C(=C\c1ccc(O)c([N+](=O)[O-])c1)C3=O`, the IC50 (commonly the concentration at which inhibition is half-maximal) was 0.02 µM.
For `Cc1cc(=O)oc2c3c(ccc12)O/C(=C\c1ccc(Cl)cc1Cl)C3=O` the value was 36.2 µM; for `Cc1cc(=O)oc2c3c(ccc12)O/C(=C\c1ccc(OS(C)(=O)=O)cc1)C3=O`, 32.4 µM.
The same measure for `COc1ccc(/C=C2\Oc3ccc4c(C)cc(=O)oc4c3C2=O)cc1O`: 0.04 µM; for `COc1cc(/C=C2\Oc3ccc4c(C)cc(=O)oc4c3C2=O)cc(OC)c1O`: 0.15 µM; for `CCCOc1ccc(/C=C2\Oc3ccc4c(C)cc(=O)oc4c3C2=O)cc1`: 45.8 µM.
For `Cc1cc(=O)oc2c3c(ccc12)O/C(=C\c1ccc([N+](=O)[O-])c(O)c1)C3=O` the value was 0.03 µM.
For the compound `Cc1cc(=O)oc2c3c(ccc12)O/C(=C\c1ccccn1)C3=O`, half-maximal inhibition (IC50) required 39.5 µM.
For the compound `CCOc1cc(/C=C2\Oc3ccc4c(C)cc(=O)oc4c3C2=O)ccc1O`, the IC50 was determined as 30 µM.
For the compound `Cc1cc(=O)oc2c3c(ccc12)O/C(=C\c1cc([N+](=O)[O-])ccc1F)C3=O`, the IC50 came to 99.8 µM.
As to `CCC(CC)O[C@@H]1C=C(C(=O)O)C[C@H](N)[C@H]1NC(C)=O` [OSELTAMIVIR CARBOXYLATE], the IC50 stood at 0.04 µM.
`CCOC(=O)C1=C[C@@H](OC(CC)CC)[C@H](NC(C)=O)[C@@H](N)C1` [OSELTAMIVIR] gave an IC50 of 0.1 µM.
